# How the values were obtained:
# Conditions in all cases: 24 h
# U2OS [1] = assay: nuclei count in OPP assay relative to DMSO (% of DMSO); higher = more viable cells
# Description: (§1)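 Validation screen in U2OS cells: hits tested at 1, 3 and 10 uM for 24 h in duplicate plates. Translation was read by OPP incorporation (1 h pulse) and HPG incorporation (30 min in methionine-free medium), quantified by high-throughput microscopy alongside nuclei counts. All values are normalised to DMSO (= 100).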
# U2OS [2] = assay: mean OPP incorporation (global translation) relative to DMSO (% of DMSO); higher = more protein synthesis
# Description: as §1
# U2OS [3] = assay: mean HPG incorporation (global translation) relative to DMSO (% of DMSO); higher = more protein synthesis
# Description: as §1
# U2OS [4] = assay: nuclei count in HPG assay relative to DMSO (% of DMSO); higher = more viable cells
# Description: as §1
Compound,nuclei count in OPP assay (U2OS [1]; 1 µM),nuclei count in OPP assay (U2OS [1]; 3 µM),nuclei count in OPP assay (U2OS [1]; 10 µM),mean OPP incorporation (U2OS [2]; 1 µM),mean OPP incorporation (U2OS [2]; 3 µM),mean OPP incorporation (U2OS [2]; 10 µM),mean HPG incorporation (U2OS [3]; 1 µM),mean HPG incorporation (U2OS [3]; 3 µM),mean HPG incorporation (U2OS [3]; 10 µM),nuclei count in HPG assay (U2OS [4]; 1 µM),nuclei count in HPG assay (U2OS [4]; 3 µM),nuclei count in HPG assay (U2OS [4]; 10 µM)
COc1ccccc1S(=O)(=O)Nc1ccc2c(c1)CN(C)C(=O)N2 [PFI-1],99.5,106,106,83.4,56.2,45.9,95.7,93.2,87,103,101,101
Nc1ccc(-c2cccc3c(=O)cc(N4CCOCC4)oc23)cc1 [PI 828],101,89.8,81.9,92.1,83.1,54.1,73.5,64.3,41.5,108,94.6,85.2
CC[C@@H]1/C=C(\C)C[C@H](C)C[C@H](OC)[C@H]2O[C@@](O)(C(=O)C(=O)N3CCCC[C@H]3C(=O)O[C@H](/C(C)=C/[C@@H]3CC[C@H](Cl)[C@H](OC)C3)[C@H](C)[C@@H](O)CC1=O)[C@H](C)C[C@@H]2OC [Pimecrolimus],101,106,95.5,125,123,124,108,113,99.6,103,101,92.5
CCOc1cc(C(=O)Nc2ccc(Cl)c(-c3nc4ccccc4[nH]3)c2)cc(OCC)c1OCC [SANT-2],102,109,104,117,114,121,97.5,92.7,74.1,102,105,97.5
Oc1ccc(Nc2nc(-c3ccc(Cl)cc3)cs2)cc1 [SKI II],88.5,85.3,75.2,91,83.5,69.5,92.6,79.3,55.7,99,88.9,72.6
COc1nc(-c2ccc3c(c2)OCO3)n(-c2ccc(NC(=O)CSc3ccccc3)cc2)n1 [SecinH3],105,105,98.9,106,117,121,107,100,93.3,107,96.8,100
CC(C)n1nc(-c2cc3cc(O)ccc3[nH]2)c2c(N)ncnc21 [Torkinib (PP242)],96,81.7,74.7,58.4,37.4,27.3,42.9,32.7,30.9,96.6,83,76.6
CCCc1cc(C)[nH]c(=O)c1CNC(=O)c1cc(-c2ccc(N3CCN(C(C)C)CC3)nc2)cc2c1cnn2C(C)C [UNC1999],89.3,93.6,73.9,108,119,122,111,119,77.1,93.7,94.7,80.6

# From the supplement of paper PMC8183993
